Data published in BindingDB's records for doi:10.1021/acschembio.6b00782 (University of Michigan, 2017).

Experiments:
[1] = molecular target: T1, Paired box protein Pax-2 [1-81] (Human, UniProt Q02962); assay: Biolayer Interferometry Binding Assay
T1 construct: 1-81
Procedure: (§1) After biotinylation, the protein was bound to saturation to the biosensor of an Octet RED Multichannel platform (ForteBio). All binding and equilibration was done in PBS with 0.1% DMSO. For binding to the compound, sensors were incubated for 300s in EG1 at the following concentrations: 0.5, 1, 2, 4, 8, 16, 31, 62, 125, and 250 μM. Disassociation was then measured for 350 s in PBS to determine affinity constants. Kd is calculated from steady state analysis.

[2] = molecular target: T1, Paired box protein Pax-2 [1-81]; assay: Biolayer Interferometry Binding Assay; remark: listed apart in the source
Procedure: as §1, with “Kon and Koff.” for “steady state analysis.”

T1 sequence (Q02962 1-81): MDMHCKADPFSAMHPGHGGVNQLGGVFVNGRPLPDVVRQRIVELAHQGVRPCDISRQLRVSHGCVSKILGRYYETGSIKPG

COc1ccccc1C(=O)Nc1ccc(C(=O)Nc2ccccc2C(=O)O)cc1 [EG1]
Kd [1]: 1.5 µM | Kd [2]: 1.35 µM
